Results taken from US12268702B2, “Antitumor pharmaceutical composition comprising azvudine and chemotherapeutic agent” (HENAN GENUINE BIOTECH CO., LTD., priority 2023, dated 2025).

System: A2058 xenograft tumor model
Assay: Human melanoma A2058 cell subcutaneous xenograft tumor model
Assay type: in vivo
Conditions: azvudine 1 mg/kg, dacarbazine 60 mg/kg, combination 1 + 60 mg/kg; for Tumor volume (mm^3) on the 14th day: 14th day of administration
Experimental: Human melanoma cells A2058 (Cat. No.: CRL-11147) were cultured in vitro as a monolayer in DMEM medium containing 10% fetal bovine serum, 100 U/mL penicillin and 100 μg/mL streptomycin, in a 37° C. and 5% CO2 incubator. The cells were routinely digested with trypsin-EDTA and passaged twice a week. When the cell saturation reached 80%-90% and the cell number achieved the requirement, the cells were collected, counted and inoculated.
0.2 mL (5×10^6) of A2058 cells were added with Matrigel, and the mixture was subcutaneously inoculated on the right back of each mouse. The grouping administration was started when the average tumor volume reached about 136 mm^3.

[1] = based on tumor volume, 14th day

Which results are given for `CN(C)/N=N/c1[nH]cnc1C(N)=O` [Dacarbazine, dacarbazine]?
Tumor volume (mm^3) on the 14th day: 1,255 ± 186 mm^3; Tumor volume (mm^3) on the 14th day (listed as dacarbazine): 1255 mm^3; T/C (%) [1]: 44.77%; TGI (%) [1]: 56.74%
